In patent US8846746B2, “Pyrazole compound and pharmaceutical use thereof” (Japan Tobacco Inc., priority 2011, dated 2014) one finds IC50 and inhibition data, which are given here for 61 compounds.

The term IC50 denotes the concentration that inhibits the measured activity by half. The low end stands for higher potency, the high end for lower potency. In general, inhibition refers to the drop in the measured response relative to a control, in per cent.

In one test the target is human SGLT1 (Homo sapiens (Human), UniProt P13866). Briefly: SGLT1 inhibitory activity: 14C-AMG uptake into CHO-K1 cell line stably expressing human SGLT1. It is filed as cell-based. The note with it: 14C-AMG uptake, CHO-K1 cells stably expressing human SGLT1. In a few lines: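 CHO-K1 cells stably expressing human SGLT1 were pre-incubated 20 min in Na(−) buffer (pH 7.4). Test compound in Na(+) buffer with BSA was added with ¹⁴C-AMG (8 kBq) plus unlabelled AMG (2 mM in the added solution) for 1 h at 37 °C.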
human SGLT1, sequence (P13866 whole entry): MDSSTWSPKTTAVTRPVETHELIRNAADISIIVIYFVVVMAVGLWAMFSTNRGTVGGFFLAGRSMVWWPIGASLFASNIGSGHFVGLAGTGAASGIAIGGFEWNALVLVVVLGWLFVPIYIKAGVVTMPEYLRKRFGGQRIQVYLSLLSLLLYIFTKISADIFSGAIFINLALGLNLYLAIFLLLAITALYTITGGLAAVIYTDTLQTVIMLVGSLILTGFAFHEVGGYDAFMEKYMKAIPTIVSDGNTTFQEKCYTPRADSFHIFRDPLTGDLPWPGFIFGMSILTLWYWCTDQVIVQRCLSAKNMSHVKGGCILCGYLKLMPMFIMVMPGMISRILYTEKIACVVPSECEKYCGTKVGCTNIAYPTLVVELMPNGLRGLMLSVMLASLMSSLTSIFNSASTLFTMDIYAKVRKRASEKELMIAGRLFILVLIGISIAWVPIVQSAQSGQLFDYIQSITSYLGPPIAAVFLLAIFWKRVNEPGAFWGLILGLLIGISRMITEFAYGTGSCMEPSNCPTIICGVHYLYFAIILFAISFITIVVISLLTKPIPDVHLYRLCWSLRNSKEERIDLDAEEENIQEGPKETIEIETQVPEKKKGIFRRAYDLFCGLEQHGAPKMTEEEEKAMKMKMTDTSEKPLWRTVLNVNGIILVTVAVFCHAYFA
`CC(C)Oc1cccc(-n2nc(NC(=O)[C@@H]3CNC(=O)C3)cc2-c2cccc(OC(F)(F)F)c2)c1F` [Example 478] came in with an IC50 of 36 nM.

`COc1cccc(-n2nc(NC(=O)[C@@H]3CNC(=O)C3)cc2-c2cccc(COCC(F)(F)F)c2)c1F` [Example 480] yielded a half-inhibitory concentration (IC50) of 6.8 nM.

`CCOc1cccc(-n2nc(NC(=O)[C@@H]3CNC(=O)C3)cc2-c2cccc(COCC(F)(F)F)c2)c1F` [Example 481] gave an IC50 of 8.7 nM.

`CC(C)Oc1cccc(-n2nc(NC(=O)[C@@H]3CNC(=O)C3)cc2-c2cccc(COCC(F)(F)F)c2)c1F` [Example 482] showed a 50% inhibitory concentration (IC50) of 12 nM.

The compound `COCCOc1cccc(-n2nc(NC(=O)[C@@H]3CNC(=O)C3)cc2-c2cccc(COCC(F)(F)F)c2)c1F` [Example 483] showed an IC50 of 59 nM.

Regarding `COc1cccc(-n2nc(NC(=O)[C@@H]3CNC(=O)C3)cc2-c2cccc(CO[C@H](C)C(F)(F)F)c2)c1F` [Example 484], the half-inhibitory concentration (IC50) worked out at 4.2 nM.

With `CCOc1cccc(-n2nc(NC(=O)[C@@H]3CNC(=O)C3)cc2-c2cccc(CO[C@H](C)C(F)(F)F)c2)c1F` [Example 485], the IC50 stood at 4.1 nM.

Regarding `CC(C)Oc1cccc(-n2nc(NC(=O)[C@@H]3CNC(=O)C3)cc2-c2cccc(CO[C@H](C)C(F)(F)F)c2)c1F` [Example 486], the midpoint of inhibition, the IC50, lay at 6.5 nM.

Turning to `COCCOc1cccc(-n2nc(NC(=O)[C@@H]3CNC(=O)C3)cc2-c2cccc(CO[C@H](C)C(F)(F)F)c2)c1F` [Example 487], inhibition was half-maximal at 23 nM (IC50).

Consider `O=C1C[C@H](C(=O)Nc2cc(-c3cc(F)cc(COCC(F)(F)F)c3)n(-c3ccccc3)n2)CN1` [Example 488], for which the 50% inhibitory concentration (IC50) was found to be 18 nM.

In the case of `COCc1cccc(-n2nc(NC(=O)[C@@H]3CNC(=O)C3)cc2-c2cccc(COCC(F)(F)F)c2)c1` [Example 489], the IC50 stood at 11 nM.

Regarding `CCCc1cccc(-c2cc(NC(=O)[C@@H]3CNC(=O)C3)nn2-c2cccc(OCCCSC)c2)c1` [Example 490], 7.6 nM corresponded to half-maximal inhibition (IC50).

In turn, `CCCc1cccc(-c2cc(NC(=O)[C@@H]3CNC(=O)C3)nn2-c2cccc(OCC3(C)COC3)c2)c1` [Example 491] showed an IC50 of 6.5 nM.

Consider `CCCc1cccc(-c2cc(NC(=O)[C@@H]3CNC(=O)C3)nn2-c2cccc(OCCCS(C)(=O)=O)c2)c1` [Example 492], for which the midpoint of inhibition, the IC50, lay at 19 nM.

`CCCc1cccc(-c2cc(NC(=O)[C@@H]3CNC(=O)C3)nn2-c2cccc(C=C(C)C)c2)c1` [Example 493] yielded a half-maximal inhibitory concentration (IC50) of 8.2 nM.

For the compound `C/C=C/c1cccc(-n2nc(NC(=O)[C@@H]3CNC(=O)C3)cc2-c2cccc(CCC)c2)c1` [Example 494], the half-inhibitory concentration (IC50) was 9.1 nM. This IC50 and that of the compound before are within 1.5-fold of each other.

For `CCCc1cccc(-c2cc(NC(=O)[C@@H]3CNC(=O)C3)nn2-c2cccc(C#CC(C)(C)C)c2)c1` [Example 495], the concentration for half-maximal inhibition (IC50) stood at 22 nM.

Compound `CCCc1cccc(-c2cc(NC(=O)[C@@H]3CNC(=O)C3)nn2-c2cccc(CC(C)C)c2)c1` [Example 496] showed a concentration for half-maximal inhibition (IC50) of 6.9 nM.

Take `CCCc1cccc(-c2cc(NC(=O)[C@@H]3CNC(=O)C3)nn2-c2cccc(CCC)c2)c1` [Example 497]: the concentration for half-maximal inhibition (IC50) came out at 3.3 nM. This IC50 is about 2.1-fold lower than that of the compound before.

Take `CCCc1cccc(-c2cc(NC(=O)[C@@H]3CNC(=O)C3)nn2-c2cccc(CCC(C)(C)C)c2)c1` [Example 498]: the IC50 is 70 nM.

Consider `O=C1C[C@H](C(=O)Nc2cc(-c3cccc(CNCC(F)(F)F)c3)n(-c3ccccc3)n2)CN1` [Example 501], for which 69 nM corresponded to half-maximal inhibition (IC50).

For `O=C1C[C@H](C(=O)Nc2cc(-c3cccc(OC(F)(F)F)c3)n(-c3ccc(F)cc3)n2)CN1` [Example 502], the IC50 came to 81 nM.

Compound `O=C1C[C@H](C(=O)Nc2cc(-c3cccc(OC(F)(F)F)c3)n(-c3cccc(Cl)c3)n2)CN1` [Example 504] registered a half-maximal inhibitory concentration (IC50) of 23 nM.

`O=C1C[C@H](C(=O)Nc2cc(-c3cccc(COCC(F)(F)F)c3)n(-c3cccc(Cl)c3)n2)CN1` [Example 505] returned an IC50 of 11 nM.

Compound `C[C@@H](OCc1cccc(-c2cc(NC(=O)[C@@H]3CNC(=O)C3)nn2-c2cccc(Cl)c2)c1)C(F)(F)F` [Example 506] returned a half-maximal inhibitory concentration (IC50) of 4.7 nM.

As for `O=C1C[C@H](C(=O)Nc2cc(-c3cccc(COCC(F)(F)F)c3)n(-c3ccc(Cl)cc3)n2)CN1` [Example 508], the IC50 worked out at 20 nM. Compared with the last compound, the IC50 is about 4.3-fold higher.

Compound `O=C1C[C@H](C(=O)Nc2cc(-c3cccc(COCC(F)(F)F)c3)n(-c3cccc(OC4COC4)c3)n2)CN1` [Example 509] returned a concentration for half-maximal inhibition (IC50) of 38 nM.

In turn, `O=C1C[C@H](C(=O)Nc2cc(-c3cc(F)cc(COCC(F)(F)F)c3)n(-c3ccccc3Cl)n2)CN1` [Example 510] had an IC50 of 8.3 nM.

As to `O=C1C[C@H](C(=O)Nc2cc(-c3cc(F)cc(COCC(F)(F)F)c3)n(-c3cccc(Cl)c3)n2)CN1` [Example 511], it took 7.9 nM to reach half-maximal inhibition (IC50).

For `O=C1C[C@H](C(=O)Nc2cc(-c3cc(F)cc(COCC(F)(F)F)c3)n(-c3ccc(Cl)cc3)n2)CN1` [Example 512], the concentration for half-maximal inhibition (IC50) came out at 16 nM.

Turning to `C[C@@H](OCc1cc(F)cc(-c2cc(NC(=O)[C@@H]3CNC(=O)C3)nn2-c2ccccc2Cl)c1)C(F)(F)F` [Example 513], it took 3.2 nM to reach half-maximal inhibition (IC50).

Take `C[C@@H](OCc1cc(F)cc(-c2cc(NC(=O)[C@@H]3CNC(=O)C3)nn2-c2cccc(Cl)c2)c1)C(F)(F)F` [Example 514]: the IC50 came out at 4 nM.

`COc1ccc(F)c(-n2nc(NC(=O)[C@@H]3CNC(=O)C3)cc2-c2cccc(OC(F)(F)F)c2)c1` [Example 515]: the 50% inhibitory concentration (IC50) is 12 nM.

Consider `CCOc1ccc(F)c(-n2nc(NC(=O)[C@@H]3CNC(=O)C3)cc2-c2cccc(OC(F)(F)F)c2)c1` [Example 516], for which the IC50 was 8.3 nM.

Consider `CC(C)Oc1ccc(F)c(-n2nc(NC(=O)[C@@H]3CNC(=O)C3)cc2-c2cccc(OC(F)(F)F)c2)c1` [Example 517], for which the half-maximal inhibitory concentration (IC50) was found to be 3.8 nM.

In the case of `COCCOc1ccc(F)c(-n2nc(NC(=O)[C@@H]3CNC(=O)C3)cc2-c2cccc(OC(F)(F)F)c2)c1` [Example 518], the IC50 came out at 11 nM.

As for `O=C1C[C@H](C(=O)Nc2cc(-c3cc(F)cc(COCC(F)(F)F)c3)n(-c3ccccc3F)n2)CN1` [Example 519], it took 13 nM to reach half-maximal inhibition (IC50).

`O=C1C[C@H](C(=O)Nc2cc(-c3cc(F)cc(COCC(F)(F)F)c3)n(-c3cccc(F)c3)n2)CN1` [Example 520] returned an IC50 of 18 nM.

The compound `C[C@@H](OCc1cc(F)cc(-c2cc(NC(=O)[C@@H]3CNC(=O)C3)nn2-c2cccc(F)c2)c1)C(F)(F)F` [Example 521] returned a half-maximal inhibitory concentration (IC50) of 5.15 nM.

In turn, `COc1ccc(F)c(-n2nc(NC(=O)[C@@H]3CNC(=O)C3)cc2-c2cccc(COCC(F)(F)F)c2)c1` [Example 522] yielded an IC50 of 5.3 nM. The IC50 values of the last two compounds are within 1.5-fold of each other.

In the case of `COc1ccc(F)c(-n2nc(NC(=O)[C@@H]3CNC(=O)C3)cc2-c2cccc(CO[C@H](C)C(F)(F)F)c2)c1` [Example 523], the concentration for half-maximal inhibition (IC50) is 2.15 nM.

Consider `COc1cc(F)cc(-n2nc(NC(=O)[C@@H]3CNC(=O)C3)cc2-c2cccc(OC(F)(F)F)c2)c1` [Example 524], for which the half-maximal inhibitory concentration (IC50) is 27 nM.

Compound `CCOc1cc(F)cc(-n2nc(NC(=O)[C@@H]3CNC(=O)C3)cc2-c2cccc(OC(F)(F)F)c2)c1` [Example 525] showed an IC50 of 18 nM.

Turning to `CC(C)Oc1cc(F)cc(-n2nc(NC(=O)[C@@H]3CNC(=O)C3)cc2-c2cccc(OC(F)(F)F)c2)c1` [Example 526], the IC50 is 9.2 nM.

Turning to `COc1cc(F)cc(-n2nc(NC(=O)[C@@H]3CNC(=O)C3)cc2-c2cccc(COCC(F)(F)F)c2)c1` [Example 527], the half-inhibitory concentration (IC50) came out at 8.5 nM.

`CCOc1cc(F)cc(-n2nc(NC(=O)[C@@H]3CNC(=O)C3)cc2-c2cccc(COCC(F)(F)F)c2)c1` [Example 528] had an IC50 of 3.6 nM.

The compound `CC(C)Oc1cc(F)cc(-n2nc(NC(=O)[C@@H]3CNC(=O)C3)cc2-c2cccc(COCC(F)(F)F)c2)c1` [Example 529] registered an IC50 of 2.3 nM.

The compound `CC(C)(C)/C=C/c1cccc(-c2cc(NC(=O)[C@@H]3CNC(=O)C3)nn2-c2ccccc2)c1` [Example 531] returned an IC50 of 30 nM.

In the case of `COc1cc(F)cc(-n2nc(NC(=O)[C@@H]3CNC(=O)C3)cc2-c2cccc(CO[C@H](C)C(F)(F)F)c2)c1` [Example 533], the IC50 is 2.1 nM.

`CCOc1cc(F)cc(-n2nc(NC(=O)[C@@H]3CNC(=O)C3)cc2-c2cccc(CO[C@H](C)C(F)(F)F)c2)c1` [Example 534]: the concentration for half-maximal inhibition (IC50) amounted to 1.8 nM.

For `CC(C)Oc1cc(F)cc(-n2nc(NC(=O)[C@@H]3CNC(=O)C3)cc2-c2cccc(CO[C@H](C)C(F)(F)F)c2)c1` [Example 535], it took 2.8 nM to reach half-maximal inhibition (IC50).

Still in this test, the particulars now being: CHO-K1, at 0.1 uM.
Regarding `COCCOc1cccc(-n2nc(NC(=O)[C@@H]3CNC(=O)C3)cc2-c2cccc(OC(F)(F)F)c2)c1F` [Example 479], the inhibition at 0.1 µM amounted to 46%.

With `CC(C)(C)C#Cc1cccc(-c2cc(NC(=O)[C@@H]3CNC(=O)C3)nn2-c2ccccc2)c1` [Example 499], the inhibition at 0.1 µM is 4%.

In the case of `CCCc1cccc(-c2cc(NC(=O)[C@@H]3CNC(=O)CN3)nn2-c2ccccc2)c1` [Example 500], the inhibition at 0.1 µM came out at 19%.

As for `O=C1C[C@H](C(=O)Nc2cc(-c3cccc(COCC(F)(F)F)c3)n(-c3cc(Cl)ccc3F)n2)CN1` [Example 503], the inhibition at 0.1 µM is -17%.

Consider `O=C1C[C@H](C(=O)Nc2cc(-c3cccc(OC(F)(F)F)c3)n(-c3ccc(Cl)cc3)n2)CN1` [Example 507], for which the inhibition at 0.1 µM came out at 50%.

For the compound `CS(=O)(=O)c1cccc(-n2nc(NC(=O)[C@@H]3CNC(=O)C3)cc2-c2cccc(COCC(F)(F)F)c2)c1` [Example 530], the inhibition at 0.1 µM was 40%.

Take `O=C1C[C@H](C(=O)Nc2cc(-c3cccc(C#CC4CC4)c3)n(-c3ccccc3)n2)CN1` [Example 532]: the inhibition at 0.1 µM stood at 26%.

For the compound `O=C1C[C@H](C(=O)Nc2cc(-c3cccc(CO[C@@H]4CCOC4)c3)n(-c3ccccc3)n2)CN1` [Example 536], the inhibition at 0.1 µM was found to be 15%.

Regarding `O=C1C[C@H](C(=O)Nc2cc(-c3cccc(CO[C@H]4CCOC4)c3)n(-c3ccccc3)n2)CN1` [Example 537], the inhibition at 0.1 µM came to 1%.

Turning to `O=C1C[C@H](C(=O)Nc2cc(-c3cccc(CO[C@@H]4CCCOC4)c3)n(-c3ccccc3)n2)CN1` [Example 538], the inhibition at 0.1 µM was 33%.
